Reference: patent publication US7078401B2, “Thiophenylaminoimidazolines as IP antagonists” (Roche Palo Alto LLC, priority 2003, dated 2006)
Where a name gives a salt, the structure may show the parent alone.

| melting point | Structure (SMILES) |
| --- | --- |
| 149 to 150 °C | COc1ccc(Sc2ccc(NC3=NCCN3)cc2)cc1 (as salt: hydrochloride) [Compound 5, (4,5-Dihydro-1H-imidazol-2-yl)-[4-(4-methoxy-phenylsulfanyl)-phenyl]-amine] |
| 127 to 130 °C | Clc1ccc(Sc2ccc(CNC3=NCCN3)cc2)cc1 (as salt: hydrochloride) [Compound 9, [4-(4-Chloro-phenylsulfanyl)-benzyl]-(4,5-dihydro-1H-imidazol-2-yl)-amine] |
| 148 to 152 °C | Clc1ccc(Sc2ccc(NC3=NCCCC3)cc2)cc1 (as salt: hydrochloride) [Compound 73, [4-(4-Chloro-phenylsulfanyl)-phenyl]-(3,4,5,6-tetrahydro-pyridin-2-yl)-amine] |
| 140 to 141 °C | COc1ccc(Sc2ccc(NC(=N)N)cc2)cc1 [Example 2, N-[4-(4-Methoxy-phenylsulfanyl)-phenyl]-guanidine] |
